Results reported in patent US11360010B1, “Methods and device for controlled cell stretch and imaging” (The Regents of the University of Colorado, a body, priority 2019, dated 2022).
Entries after “also recorded” stand apart in the source; their conditions may differ.

What was measured:
Assay type in all cases: cell-based
[1] = system: mouse embryonic skin fibroblasts (MSFs); assay: Live imaging of nuclear area and chromatin condensation (H2b-eGFP) during cyclic stretch routines; settings: BAPTA 50 μM, KN-62 10 μM, cytochalasin D 2 μM
Description: (§1) Transgenic mice harboring a fluorescence tag at the H2b histone—B6.Cg-Tg (HIST1H2BB/EGFP) 1 Pa/J, Stock No: 006069—were obtained from Jackson Laboratory (Bar Harbor, Me.). All animal procedures were performed following Institutional Animal Care & Use Committee approval. Skin from embryonic mice was harvested 18.5 days post-conception. Skin was minced, washed with Hank's Balanced Salt Solution (HBSS), and incubated in 35 mm dishes in shallow medium (˜0.5 mL) to avoid floating of the tissue for 4 days, during which fibroblasts extruded from the tissue. After 4 days, remaining tissue was removed (picked out with a pipette), and extruded cells in the dish were detached using TrypLE (Gibco, Gaithersburg, Md.) and expanded in culture for another 2 days before being seeded into stretch chambers for experiments. The inner well of assembled stretch chambers was ozone activated for 30 s via corona arc discharge (BD-20; Electro-Technic Products) and coated with 50 μg/mL bovine plasma fibronectin (F1141; Sigma-Aldrich) in a total volume of 250 μL overnight at 37° C. Mouse embryonic skin fibroblasts (MSFs) were seeded into stretch chambers at a density of 80,000 cells/cm′ 1 day before experiments. MSFs were extruded and cultured in DMEM (ATCC, Manassas, Va.) containing 10% fetal bovine serum (Gibco), 1% penicillin-streptomycin (Gibco), and 25 mM HEPES (Gibco) at 37° C. and 5% CO2. To inhibit calcium signaling, MSFs were incubated with 50 μM BAPTA (A4926; Sigma-Aldrich) or 10 μM KN-62 (12142; Sigma-Aldrich) 1 h before cyclic strain experiments. To disrupt actin polymerization, MSFs were incubated with 2 μM cytochalasin D (C8273; Sigma-Aldrich) 30 min before experiments. Vehicle controls were incubated with 0.001% DMSO (276855; Sigma-Aldrich) 1 h before experiments. To test the use of chromatin dyes, cells were stained with Hoechst (NucBlue Live ReadyProbes; Life Technologies) 30 min before experiments. Stretch experiments were performed at 25° C. (room temperature) under humidified conditions.
The stretch device was mounted on an inverted epi-fluorescence microscope (Ti-Eclipse; Nikon) with a 60× water immersion objective (0.26 μm/pixel) and an EMCCD camera (iXonEM+; Andor Technology). The surrounding of the microscope was humidified to prevent the water on the objective from evaporating during the 1 h experiment. Oil immersion is also possible, but water immersion provided better image quality with the silicone membranes used.
Using MATLAB, a sinusoidal control signal (1 Hz) was sent to the Arduino controller, resulting in a cyclic stretch routine of the membrane (FIG. 1C), with peak strains set to 5% (−0.1 V), 10% (−0.9 V), and 20% (−2.25 V) as determined by the calibration curve. Cells were cyclically stretched for 30 min, followed by 30 min of rest, during which 2 μm z-stacks (0.5 μm steps) of nuclei were acquired. During the rest period, cells experienced no stretch but a constant magnetic field using the offset Arduino input voltage (0.8 V) that keeps the piston suspended at 0% stretch. For acquisition, the cyclic stretch routine was paused for 1 min to allow for a steady imaging plane and fine readjustments in z-position due to water evaporation. Unstretched control cells (0%) were seeded into stretch chambers but kept stationary on the microscope without any magnetic field applied. Unstretched magnetic control cells (MAG) were placed stationary inside the coil without the piston, and a magnetic field corresponding to a 20% sinusoidal stretch routine was applied.
A custom MATLAB code was used to track nuclear outlines via H2b-eGFP and to generate H2b intensity histograms during an image series, from which changes in nuclear area, H2b skewness, and H2b kurtosis were calculated.

[2] = system: mouse embryonic skin fibroblasts (MSFs); assay: Perinuclear F-actin and γH2a.x staining after cyclic stretch routines; settings: cytochalasin D 2 μM
Description: as §1
MSFs were fixed in 4% ice-cold paraformaldehyde (PFA) for 10 min, permeabilized with 1% Triton-X100 in phosphate-buffered saline for 15, min and blocked with 10% NGS, 1% bovine serum albumin in 0.1% PBT (0.1% Tween-20 in phosphate-buffered saline) for 60 min. Primary incubation of Phospho-Histone H2A.X Ser139 (9718S; Cell Signaling Technology, Danvers, Mass.) was performed at 4° C. overnight in 0.1% PBT containing 1% bovine serum albumin at 1:400. Secondary incubation of goat anti-rabbit IgG-AF546 (Life Technologies) was performed in primary incubation buffer for 45 min at 22° C. at a dilution of 1:500. F-actin was counterstained with phalloidin-CF405 (Biotium, Fremont, Calif.) for 30 min at a dilution of 1:30. Staining was performed in containment wells. After staining, membranes were cut out of the containment well using a circular punch and mounted cell-side up onto #1.0 glass slides with ProLong Diamond Antifade Mountant (Life Technologies). Image stacks (5 μm, 1 μm step) of multiple nuclei in a 318×318 μm area were acquired on a Nikon MR confocal microscope using a 40× oil immersion objective (0.31 μm/pixel). A custom MATLAB code was used to track nuclear outlines via H2b-eGFP and to quantify perinuclear F-actin intensities and γH2a.x foci in projected image stacks. Only the projected F-actin within the nuclear outline (apical perinuclear F-actin) was counted in this analysis. To account for variations in staining and imaging (the same imaging settings were used), fluorescence channels were histogram normalized. Perinuclear F-actin intensities were calculated as the sum of normalized phalloidin intensities within a nuclear border. DNA damage foci were determined by detecting 2D peaks in the normalized γH2a.x channel using the MATLAB script FastPeakFind (v. 1.7).

[3] = system: mouse embryonic skin fibroblasts (MSFs); assay: Nuclear strain transfer from membrane to nucleus after cyclic stretch; settings: after 30 min of 20% cyclic strain; relaxed vs stretched images; cytochalasin D 2 μM vs NT cells
Description: Transgenic mice harboring a fluorescence tag at the H2b histone—B6.Cg-Tg (HIST1H2BB/EGFP) 1 Pa/J, Stock No: 006069—were obtained from Jackson Laboratory (Bar Harbor, Me.). All animal procedures were performed following Institutional Animal Care & Use Committee approval. Skin from embryonic mice was harvested 18.5 days post-conception. Skin was minced, washed with Hank's Balanced Salt Solution (HBSS), and incubated in 35 mm dishes in shallow medium (˜0.5 mL) to avoid floating of the tissue for 4 days, during which fibroblasts extruded from the tissue. After 4 days, remaining tissue was removed (picked out with a pipette), and extruded cells in the dish were detached using TrypLE (Gibco, Gaithersburg, Md.) and expanded in culture for another 2 days before being seeded into stretch chambers for experiments. […] To test the use of chromatin dyes, cells were stained with Hoechst (NucBlue Live ReadyProbes; Life Technologies) 30 min before experiments. […]
To analyze the amount of strain transferred from the membrane to the nucleus after cyclic stretch routines, image stacks of nuclei were acquired under relaxed or stretched conditions, and bulk nuclear strain was calculated from the change in nuclear area using the same MATLAB script as above. Note that nuclear strain transfer could not be accurately analyzed before stretch routines because of the fast response in area decline.

[4] = static magnetic-field-only routine (MAG), no stretch
[5] = after 30 min 5% cyclic stretch, vs NT or VH control cells, BAPTA 50 μM, KN-62 10 μM
[6] = after 30 min 5% cyclic stretch, vs NT or VH control cells, BAPTA 50 μM, KN-62 10 μM, listed as CD
[7] = after 30 min 20% cyclic stretch, vs NT or VH control cells, BAPTA 50 μM, KN-62 10 μM
[8] = after 30 min 20% cyclic stretch, vs NT or VH control cells, BAPTA 50 μM, KN-62 10 μM, listed as CD

## C=C1[C@@H](C)[C@H]2[C@H](Cc3ccccc3)NC(=O)[C@]23[C@H](OC(C)=O)/C=C/[C@@](C)(O)C(=O)[C@@H](C)C/C=C/[C@H]3[C@@H]1O [cyto D, cytochalasin D]
[1]; 30 min 5% cyclic strain, 1 Hz, vs NT/VH cells (area increases)
  change in nuclear area: abrogated the increase in nuclear area
[1]; 30 min 5% cyclic strain, 1 Hz, vs NT/VH cells (area increases), listed as CD
  change in nuclear area: inhibited changes in nuclear area
[1]; 30 min 5% cyclic strain, 1 Hz, vs NT/VH cells (condensation decreases)
  chromatin condensation (H2b histogram kurtosis and skewness): distinctly increased chromatin condensation
[1]; 30 min 5% cyclic strain, 1 Hz, vs NT/VH cells (condensation decreases), listed as CD
  chromatin condensation (H2b histogram kurtosis and skewness): inhibited changes in nuclear area and chromatin condensation
[1]; 30 min 20% cyclic strain, 1 Hz, vs NT/VH cells (area decreases)
  change in nuclear area: inhibited nuclear shrinkage
[1]; 30 min 20% cyclic strain, 1 Hz, vs NT/VH cells (area decreases), listed as CD
  change in nuclear area: inhibited changes in nuclear area
[1]; 30 min 20% cyclic strain, 1 Hz, vs NT/VH cells (condensation increases)
  chromatin condensation (H2b histogram kurtosis and skewness): inhibited nuclear shrinkage and chromatin condensation
[1]; 30 min 20% cyclic strain, 1 Hz, vs NT/VH cells (condensation increases), listed as CD
  chromatin condensation (H2b histogram kurtosis and skewness): inhibited changes in nuclear area and chromatin condensation
[1]; [4]
  change in nuclear area: showed no effect
  chromatin condensation (H2b histogram kurtosis and skewness): showed no effect
[2]; [5]
  number of γH2a.x foci per nucleus (DNA damage, double-strand breaks): distinctly increased
  perinuclear F-actin intensities: increased
[2]; [6]
  number of γH2a.x foci per nucleus (DNA damage, double-strand breaks): increased number of foci
  perinuclear F-actin intensities: altered F-actin intensities
[2]; [7]
  number of γH2a.x foci per nucleus (DNA damage, double-strand breaks): distinctly increased
  perinuclear F-actin intensities: abrogated
[2]; [8]
  number of γH2a.x foci per nucleus (DNA damage, double-strand breaks): increased number of foci
  perinuclear F-actin intensities: altered F-actin intensities
[2]; after magnetic-field-only routine (MAG)
  perinuclear F-actin intensities: showed no effect
[2]; static magnetic-field-only controls (MAG), BAPTA 50 μM, KN-62 10 μM
  number of γH2a.x foci per nucleus (DNA damage, double-strand breaks): had no effect
[3]
  strain transferred from membrane to nuclei (nuclear strain): higher nuclear strains; also recorded: increase
